In US20100015079A1, “Cosmetic Compositions for the Protection or Regeneration of Hair or Skin” (Institut Dr. Schrader, priority 2006, published 2010):

Test: UVA-induced photon emission (chemiluminescence, ICL-H) of permanently waved hair tresses after treatment with rinse-off formulation
Set-up: species or system human
Conditions: Example 1; for UVA-induced photon emission (chemiluminescence), measure of hair damage: measured two days after treatment, damage by permanent wave alone 555%
Description: The effect of taurinamide hydrochloride on the regeneration of permanently waved hair was investigated. For this, three tresses of European hair (left natural, dense, color 7.0; Kerling) were subjected to a permanent wave treatment. The permanent wave solution had the following composition:
The tresses were washed for 1 min in a shaking machine (13.5% Texapon K12P in demineralized water) and rinsed for 2 minutes with lukewarm water. The tresses were saturated with permanent waving solution until drop-wet (10 ml for 3 tresses). After a contact time of 30 minutes, they were rinsed for 3 minutes with lukewarm water. The treatment with the permanent waving solution was repeated three times. The drop-wet tresses were then saturated with neutralizing solution (10 ml for 3 tresses). After a contact time of 10 minutes, they were rinsed for 3 minutes with lukewarm water.
To determine the effect of taurinamide, the following rinse-off formulations which comprised varying amounts of taurinamide hydrochloride were used:
The formulations were applied to the tresses from both sides using a paint brush on a glass plate (30 g for 3 tresses). After a contact time of 10 minutes, they were rinsed for 3 minutes with lukewarm water. The hair was then left to dry in the air.
Two days after the treatment, the UVA-induced photon emission (chemiluminescence) was measured. The photon emission is a measure of the hair damage. It was measured in accordance with the method described by S. Benard, H. Nerenz, M. Rohr and A. Schrader in IFSCC magazine Vol. 4 (2001), 185-189 (ICL-H (Induced Chemiluminescence of Human Hair) A new method for quantitative analysis of hair stress).

Cl.NCCS(N)(=O)=O [Taurinamide, taurinamide hydrochloride]
UVA-induced photon emission (chemiluminescence), measure of hair damage (0.1% by wt. taurinamide HCl rinse-off formulation 1.1, 10 min contact): 329%
UVA-induced photon emission (chemiluminescence), measure of hair damage (0.5% by wt. taurinamide HCl rinse-off formulation 1.2, 10 min contact): 209%
UVA-induced photon emission (chemiluminescence), measure of hair damage (1% by wt. taurinamide HCl rinse-off formulation 1.3, 10 min contact): 185%
UVA-induced photon emission (chemiluminescence), measure of hair damage (5% by wt. taurinamide HCl rinse-off formulation 1.4, 10 min contact): 118%
effect of treatment on hair damage (in words) (permanently waved hair, 0.1-5% taurinamide formulations): significantly reduces hair damage
